Results reported in PMC8959960, “Inhibition of Aldose Reductase by Novel Phytocompounds: A Heuristic Approach to Treating Diabetic Retinopathy” (Evidence-based Complementary and Alternative Medicine : eCAM, 2022).

Experiments:
[1] = test system: ALR2; details: high glucose condition; cited from earlier work
[2] = test system: ARPE-19 cells; assay: MTT cell toxicity assay; type: cell-based, human; details: 24 hr treatment
Method: The cell toxicity of the shortlisted ARIs was assessed using MTT assay kit (in vitro toxicological assay kit, Sigma, USA). ARPE-19 cells were grown to confluence in DMEM/F12 medium with 10% FBS, harvested by trypsinization, and plated at 1 × 10^4 cells per well in a 96-well plate. The medium was replaced with serum-free medium without FBS for 3 hr before the drug treatment. Following serum starvation, ARPE-19 cells were treated with different concentrations of the identified compounds. […] The cells were treated with the lead compounds for 24 hr to determine the cytotoxicity of the compounds. After incubation, the cells were treated with 20 μl of 5 mg/ml MTT and incubated for 3 hr at 37°C to determine the cell toxicity. The viable cells converted MTT into formazan crystals which were dissolved using solubilization solution (200 μl) and measured spectrophotometrically at 570 nm with subtraction of the reference wavelength, 650 nm, to eliminate the possibility of variations in the plate and the media present, using SpectraMax M3 multiplate reader (Molecular Devices, California, USA).

[3] = target: T1, ALR2 in ARPE-19 cells (Homo sapiens, UniProt P15121); assay: Inhibition of ALR2 in ARPE-19 cells; type: cell-based; details: normoglycemic (5 mM glucose) ARPE-19 cells, 24 hr, each compound at its human lens IC50 concentration
T1 construct: The cell lysate was collected for analysis; endogenous in cells; host or cells: ARPE-19
Method: The cells were shifted to DMEM-low glucose with 10% FBS, 12 hr before the experiment. The cells were washed with PBS and incubated in FBS-free medium and 5 mM/25 mM (normoglycemic condition/hyperglycemic condition) glucose, for 24 hr, with or without the drug. Following the drug treatment, the cells were washed with ice cold PBS, trypsinized, and counted. Cells were resuspended in ALR assay buffer, homogenized for 30 seconds, and centrifuged at 10000 rpm for 30 minutes. The cell lysate was collected for analysis.
ALR2 inhibition protocol by Hayman and Kinoshita was followed.

[4] = target: T2, human lens ALR2 (Homo sapiens, UniProt P15121); assay: ALR2 inhibition in human lens samples (NADPH decrease at 340 nm); type: biochemical; details: crude ALR2 from diabetic human lens, DL-glyceraldehyde substrate, 37°C, pH 7.0; means ± SD, n = 3
T2 construct: Crude ALR2 enzyme extract was prepared by homogenizing from 100 mg of diabetic and nondiabetic human lenses; from tissue; host or cells: human lens (Rotary Aravind International Eye Bank)
Method: Hayman and Kinoshita method of crude ALR2 enzyme preparation was followed. Five diabetic and nondiabetic human lenses, aged 58 to 65 years, were obtained from the Rotary Aravind International Eye Bank, Aravind Eye Hospital, Madurai. […] The nondiabetic human lens was used as the control. The lens homogenate was centrifuged at 10,000 rpm for 30 minutes, and the resulting crude ALR2 enzyme preparation was used for analysis.
The 300 μl reaction mixture consisted of 100 mM sodium phosphate buffer adjusted to pH 7.0, 0.2 mM Li2SO4, 5 mM 2-mercaptoethanol, 0.15 mM NADPH, and 100 μg crude enzyme preparation, and the substrate DL-glyceraldehyde was added to initiate the reaction. ALR2 activity was assayed spectrophotometrically by measuring the decrease in the absorption of NADPH at 340 nm per unit time at 37°C and pH 7.0.
The percentage inhibition of ALR2 was calculated using the following formula:(3) % inhibition=ΔAbsorbance of sample/min−ΔAbsorbance blank/min/ΔAbsorbance of control/min−ΔAbsorbance blank/min×100.

| SMILES | ALR2 inhibition [1] [%] | concentration below which no toxicity was shown [2] | ALR2 inhibition (%) [3] [%] | IC50 [4] [nM] |
| --- | --- | --- | --- | --- |
| CC(/C=C1\SC(=S)N(CC(=O)O)C1=O)=C\c1ccccc1 [Epalrestat, reference compound] | 65 | below 5 μM | 85 |  |
| COc1cc2oc(-c3ccc(O)cc3)c(O[C@@H]3O[C@H](CO)[C@H](O)[C@H](O)[C@H]3O)c(=O)c2c(O)c1OC [Eupalitin-3-O-galactoside] |  |  | 65 | 27.3 |
| COc1cc(C(=O)O[C@H]2[C@@H]3C=CO[C@@H](O[C@@H]4O[C@H](CO)[C@@H](O)[C@H](O)[C@H]4O)[C@@H]3[C@@]3(CO)O[C@@H]23)ccc1O [Picroside II] |  |  | 71 | 130 |
| O=C(OCC1=C[C@@H](O)[C@@H]2C=CO[C@@H](O[C@@H]3O[C@H](CO)[C@@H](O)[C@H](O)[C@H]3O)[C@H]12)c1ccc(O)cc1 [Agnuside] |  | below 5 μM | 100 | 22.4 |
| COc1cc(O)c2c(=O)cc(-c3ccccc3)oc2c1OC [7-O-Methylwogonin] |  |  | 98 | 108 |
